For experiment [1], the target named is LRRK2 WT (Homo sapiens, UniProt Q5S007). Briefly: Cell-based NanoBRET target engagement assay in HEK293 cells transfected with LRRK2 WT-NanoLuc fusion vector. The arrangement: expressed in transfected cells; host or cells: HEK293 (ATCC). Particulars: compound treatment 1 h. On the procedure: (§1) Example C. Cell-Based NanoBRET Target Engagement Assay in 11EK293 Cells Transiently Transfected with LRRK2 WT- or LRRK2 (G2019S)-Nano Luc Fusion Vector
(§2) H1EK293 (ATCC) cells were transfected with […] LRRK2 WT or LRRK2 (G2019S) and 9 μg transfection carrier DNA. The transfected cells were treated with the compounds (starting at 1 μM, 10-dose with 3-fold dilution) and reference compounds CEP-701 or Staurosporine (starting at 1 μM, 10-dose with 3-fold dilution); compound treatment time: 1 h. LRRK2 WT and LRRK2 (G2019S) target engagement was measured by NanoBRET assay. Curve fits were performed only when % NanoBret signal at the highest concentration of compounds was less than […]. Assay format: 384-well format, 4000 cells/well. The IC50 values are shown in Table C, wherein “A” corresponds to IC50≤50.0 nM, “B” corresponds to 50.0 nM≤IC50<100.0 nM, “C” corresponds to 100.0 nM≤IC50.

For experiment [2], the target named is LRRK2[G2019S] (Homo sapiens, UniProt Q5S007, G2019S). Briefly: Cell-based NanoBRET target engagement assay in HEK293 cells transfected with LRRK2 (G2019S)-NanoLuc fusion vector. Set-up: expressed in transfected cells; host or cells: HEK293 (ATCC). Particulars: compound treatment 1 h. As for the experimental part: as §1, §2
For orientation: Bioluminescence resonance energy transfer reports proximity on the nanometre scale.

This passage reports IC50 results from patent US20250248998A1, “LRRK2 Inhibitors” (Brenig Therapeutics, Inc., priority 2022, published 2025).

Some results are limits rather than exact numbers.

Sequence of LRRK2 WT (Q5S007 whole entry, the tested form may be a part): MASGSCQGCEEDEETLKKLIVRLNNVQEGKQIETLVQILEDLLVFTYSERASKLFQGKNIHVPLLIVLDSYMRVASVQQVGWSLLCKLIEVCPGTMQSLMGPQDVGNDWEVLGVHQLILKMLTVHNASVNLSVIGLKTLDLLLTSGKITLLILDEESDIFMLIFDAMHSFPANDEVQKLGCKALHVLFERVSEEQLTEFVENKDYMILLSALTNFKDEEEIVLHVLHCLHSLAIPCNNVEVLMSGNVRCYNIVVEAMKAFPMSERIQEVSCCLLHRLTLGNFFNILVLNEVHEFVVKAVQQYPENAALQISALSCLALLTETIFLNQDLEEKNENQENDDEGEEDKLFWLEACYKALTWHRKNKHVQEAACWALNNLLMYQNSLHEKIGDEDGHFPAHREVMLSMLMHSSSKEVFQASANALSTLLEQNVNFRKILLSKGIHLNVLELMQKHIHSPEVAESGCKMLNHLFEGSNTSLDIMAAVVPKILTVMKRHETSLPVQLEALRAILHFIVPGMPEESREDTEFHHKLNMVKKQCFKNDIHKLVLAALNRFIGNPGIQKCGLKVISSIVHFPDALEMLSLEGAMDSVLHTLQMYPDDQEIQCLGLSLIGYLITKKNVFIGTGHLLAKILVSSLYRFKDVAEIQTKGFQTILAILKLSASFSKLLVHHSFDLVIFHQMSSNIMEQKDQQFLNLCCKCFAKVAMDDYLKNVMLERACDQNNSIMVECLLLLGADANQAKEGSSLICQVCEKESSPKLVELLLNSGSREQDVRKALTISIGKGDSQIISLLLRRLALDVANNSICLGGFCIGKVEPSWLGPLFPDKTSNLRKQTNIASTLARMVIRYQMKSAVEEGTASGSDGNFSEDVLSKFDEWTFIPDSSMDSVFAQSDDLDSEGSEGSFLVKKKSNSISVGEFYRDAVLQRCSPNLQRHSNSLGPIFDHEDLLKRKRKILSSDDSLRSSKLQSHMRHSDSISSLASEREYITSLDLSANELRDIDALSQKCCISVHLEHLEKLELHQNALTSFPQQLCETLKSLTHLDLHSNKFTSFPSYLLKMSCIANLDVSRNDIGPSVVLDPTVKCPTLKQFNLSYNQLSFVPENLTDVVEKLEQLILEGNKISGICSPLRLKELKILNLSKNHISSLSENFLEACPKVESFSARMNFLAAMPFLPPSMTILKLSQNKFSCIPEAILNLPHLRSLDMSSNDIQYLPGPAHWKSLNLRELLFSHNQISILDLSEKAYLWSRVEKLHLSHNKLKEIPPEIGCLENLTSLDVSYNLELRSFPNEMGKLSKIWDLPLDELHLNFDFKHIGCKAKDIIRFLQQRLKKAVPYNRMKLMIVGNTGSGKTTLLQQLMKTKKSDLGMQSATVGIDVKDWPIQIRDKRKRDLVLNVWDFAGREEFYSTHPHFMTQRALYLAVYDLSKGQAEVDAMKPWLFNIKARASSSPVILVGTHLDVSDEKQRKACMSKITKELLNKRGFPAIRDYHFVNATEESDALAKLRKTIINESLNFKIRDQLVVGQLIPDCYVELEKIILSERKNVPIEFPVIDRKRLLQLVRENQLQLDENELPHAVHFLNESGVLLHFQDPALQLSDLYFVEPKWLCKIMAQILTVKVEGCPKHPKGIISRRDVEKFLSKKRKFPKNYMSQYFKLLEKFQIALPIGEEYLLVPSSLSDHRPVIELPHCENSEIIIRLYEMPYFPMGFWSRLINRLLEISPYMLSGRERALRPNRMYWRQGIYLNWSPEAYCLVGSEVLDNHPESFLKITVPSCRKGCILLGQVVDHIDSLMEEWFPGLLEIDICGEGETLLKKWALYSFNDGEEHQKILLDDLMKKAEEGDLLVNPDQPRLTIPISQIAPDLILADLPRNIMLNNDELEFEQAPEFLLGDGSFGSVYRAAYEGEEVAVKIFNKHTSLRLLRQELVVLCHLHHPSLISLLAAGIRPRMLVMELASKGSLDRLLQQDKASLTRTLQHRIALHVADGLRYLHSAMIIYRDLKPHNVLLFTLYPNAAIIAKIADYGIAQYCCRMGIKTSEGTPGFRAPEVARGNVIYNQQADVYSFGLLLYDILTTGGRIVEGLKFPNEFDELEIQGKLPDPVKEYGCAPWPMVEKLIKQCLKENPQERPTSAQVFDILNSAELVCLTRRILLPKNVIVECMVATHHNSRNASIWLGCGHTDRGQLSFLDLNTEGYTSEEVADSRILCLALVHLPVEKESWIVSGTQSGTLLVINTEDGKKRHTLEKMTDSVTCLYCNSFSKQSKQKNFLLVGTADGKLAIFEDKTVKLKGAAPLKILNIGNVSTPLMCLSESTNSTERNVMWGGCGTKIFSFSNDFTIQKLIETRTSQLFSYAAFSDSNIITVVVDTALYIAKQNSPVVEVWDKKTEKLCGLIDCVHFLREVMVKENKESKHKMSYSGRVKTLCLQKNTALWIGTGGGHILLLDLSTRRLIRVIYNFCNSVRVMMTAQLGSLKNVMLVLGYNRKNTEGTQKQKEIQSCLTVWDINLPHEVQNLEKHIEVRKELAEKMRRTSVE
Sequence of LRRK2[G2019S] (Q5S007 whole entry G2019S, the tested form may be a part): as the sequence (Q5S007 whole entry, the tested form may be a part) above, with G2019S counted along it

With `CC1(Oc2ccc3[nH]nc(-c4cc(N5CC(C)(C)C6COCC65)c(=O)n(C5CC5)n4)c3c2)CC1` (stereo not shown) [Compound 49, 2-cyclopropyl-4-(3,3-dimethyl-3a,4,6,6a-tetrahydro-2H-furo[3,4-b]pyrrol-1-yl)-6-[5-(1-methylcyclopropoxy)-1H-indazol-3-yl]pyridazin-3-one], the IC50 in experiment [1] and in experiment [2] was no more than 50 nM each time.
As to `CC1(Oc2ccc3[nH]nc(-c4cc(N5CCOCC6(CC6)C5)c(=O)n(C5CC5)n4)c3c2)CC1` [Compound 53, 2-cyclopropyl-6-[5-(1-methylcyclopropoxy)-1H-indazol-3-yl]-4-(5-oxa-8-azaspiro[2.6]nonan-8-yl)pyridazin-3-one], the concentration for half-maximal inhibition (IC50) in experiment [1] and in experiment [2] was no more than 50 nM in each case.
In the case of `Cn1nc(-c2n[nH]c3ccc(OC4(C)CC4)cc23)cc(N2CC(F)C(C)(C)C2)c1=O` (stereo not shown) [Compound 55, 4-(4-fluoro-3,3-dimethyl-pyrrolidin-1-yl)-2-methyl-6-[5-(1-methylcyclopropoxy)-1H-indazol-3-yl]pyridazin-3-one], the half-maximal inhibitory concentration (IC50) in experiment [1] and in experiment [2] was no more than 50 nM in each case.
With `Cn1nc(-c2n[nH]c3ccc(OC4(C)CC4)cc23)cc(N2CC(F)C3(CC3)C2)c1=O` (stereo not shown) [Compound 57, 4-(7-fluoro-5-azaspiro[2.4]heptan-5-yl)-2-methyl-6-[5-(1-methylcyclopropoxy)-1H-indazol-3-yl]pyridazin-3-one], the IC50 in experiment [1] and in experiment [2] was no more than 50 nM each time.
For `CC1(Oc2ccc3[nH]nc(-c4cc(N5CC(F)C6(CC6)C5)c(=O)n(C5CC5)n4)c3c2)CC1` (stereo not shown) [Compound 59, 2-cyclopropyl-4-(7-fluoro-5-azaspiro[2.4]heptan-5-yl)-6-[5-(1-methylcyclopropoxy)-1H-indazol-3-yl]pyridazin-3-one], the half-maximal inhibitory concentration (IC50) in experiment [1] and in experiment [2] was no more than 50 nM each time.
Turning to `CC1(Oc2ccc3[nH]nc(-c4cc(N5CC(F)C(C)(C)C5)c(=O)n(C5CC5)n4)c3c2)CC1` (stereo not shown) [Compound 61, 2-cyclopropyl-4-(4-fluoro-3,3-dimethyl-pyrrolidin-1-yl)-6-[5-(1-methylcyclopropoxy)-1H-indazol-3-yl]pyridazin-3-one], the IC50 in experiment [1] and in experiment [2] was no more than 50 nM in each case.
Regarding `Cn1nc(-c2n[nH]c3ccc(OC4(C)CC4)cc23)cc(N2CC(O)C(C)(C)C2)c1=O` (stereo not shown) [Compound 62, 4-(4-hydroxy-3,3-dimethyl-pyrrolidin-1-yl)-2-methyl-6-[5-(1-methylcyclopropoxy)-1H-indazol-3-yl]pyridazin-3-one], the concentration for half-maximal inhibition (IC50) in experiment [1] and in experiment [2] was no more than 50 nM each time.
In the case of `CN1CCCN(c2cc(-c3n[nH]c4ccc(OC5(C)CC5)cc34)nn(C)c2=O)CC1` [Compound 63, 2-methyl-6-[5-(1-methylcyclopropoxy)-1H-indazol-3-yl]-4-(4-methyl-1,4-diazepan-1-yl)pyridazin-3-one], the 50% inhibitory concentration (IC50) in experiment [1] and in experiment [2] was no more than 50 nM throughout.
Consider `CN1CCN(c2cc(-c3n[nH]c4ccc(OC5(C)CC5)cc34)nn(C)c2=O)CC(F)(F)C1` [Compound 64, 4-(6,6-difluoro-4-methyl-1,4-diazepan-1-yl)-2-methyl-6-[5-(1-methylcyclopropoxy)-1H-indazol-3-yl]pyridazin-3-one], for which the half-inhibitory concentration (IC50) (in general, the concentration that inhibits the measured activity by half) in experiment [1] is 50 to 100 nM; in experiment [2], no more than 50 nM.
In the case of `CN1CCN(c2cc(-c3n[nH]c4ccc(OC5(C)CC5)cc34)nn(C)c2=O)CCC1C(F)(F)F` (stereo not shown) [Compound 65, 2-methyl-6-[5-(1-methylcyclopropoxy)-1H-indazol-3-yl]-4-[4-methyl-5-(trifluoromethyl)-1,4-diazepan-1-yl]pyridazin-3-one], the 50% inhibitory concentration (IC50) in experiment [1] and in experiment [2] was no more than 50 nM throughout.
Turning to `Cn1nc(-c2n[nH]c3ccc(OC4(C)CC4)cc23)cc(N2CCCNC(C)(C)C2)c1=O` [Compound 67, 4-(3,3-dimethyl-1,4-diazepan-1-yl)-2-methyl-6-[5-(1-methylcyclopropoxy)-1H-indazol-3-yl]pyridazin-3-one], the IC50 in experiment [1] and in experiment [2] was no less than 100 nM each time.
Take `Cn1nc(-c2n[nH]c3ccc(OC4(C)CC4)cc23)cc(N2CCC(C)(C)NC(C)(C)C2)c1=O` [Compound 68, 2-methyl-6-[5-(1-methylcyclopropoxy)-1H-indazol-3-yl]-4-(3,3,5,5-tetramethyl-1,4-diazepan-1-yl)pyridazin-3-one]: the half-maximal inhibitory concentration (IC50) in experiment [1] and in experiment [2] was no less than 100 nM throughout.
With `CC1CCN(c2cc(-c3n[nH]c4ccc(OC5(C)CC5)cc34)nn(C)c2=O)CC(C)O1` (stereo not shown) [Compound 70, 4-(2,7-dimethyl-1,4-oxazepan-4-yl)-2-methyl-6-[5-(1-methylcyclopropoxy)-1H-indazol-3-yl]pyridazin-3-one], the IC50 in experiment [1] and in experiment [2] was no more than 50 nM in each case.
In the case of `Cn1nc(-c2n[nH]c3ccc(OC4(C)CC4)cc23)cc(N2CCCOC(C)(C)C2)c1=O` [Compound 73, 4-(2,2-dimethyl-1,4-oxazepan-4-yl)-2-methyl-6-[5-(1-methylcyclopropoxy)-1H-indazol-3-yl]pyridazin-3-one], the IC50 in experiment [1] is 50 to 100 nM; in experiment [2], no more than 50 nM.
Turning to `Cn1nc(-c2n[nH]c3ccc(OC4(C)CC4)cc23)cc(N2CCNC(C(F)(F)F)CC2)c1=O` (stereo not shown) [Compound 74, 2-methyl-6-[5-(1-methylcyclopropoxy)-1H-indazol-3-yl]-4-[5-(trifluoromethyl)-1,4-diazepan-1-yl]pyridazin-3-one], the IC50 in experiment [1] and in experiment [2] was no more than 50 nM each time.
For the compound `Cn1nc(-c2n[nH]c3ccc(OC4(C)CC4)cc23)cc(N2CCCCC(CO)C2)c1=O` (stereo not shown) [Compound 75, 4-[3-(hydroxymethyl)azepan-1-yl]-2-methyl-6-[5-(1-methylcyclopropoxy)-1H-indazol-3-yl]pyridazin-3-one], the 50% inhibitory concentration (IC50) in experiment [1] and in experiment [2] was no more than 50 nM in each case.
Take `Cn1nc(-c2n[nH]c3ccc(OC4(C)CC4)cc23)cc(N2CCCOCC2)c1=O` [Compound 76, 2-methyl-6-[5-(1-methylcyclopropoxy)-1H-indazol-3-yl]-4-(1,4-oxazepan-4-yl)pyridazin-3-one]: the 50% inhibitory concentration (IC50) in experiment [1] and in experiment [2] was no more than 50 nM in each case.
Consider `CC1CCN(c2cc(-c3n[nH]c4ccc(OC5(C)CC5)cc34)nn(C)c2=O)CCC1O` (stereo not shown) [Compound 78, 4-(4-hydroxy-5-methyl-azepan-1-yl)-2-methyl-6-[5-(1-methylcyclopropoxy)-1H-indazol-3-yl]pyridazin-3-one], for which the IC50 in experiment [1] and in experiment [2] was no more than 50 nM throughout.
Regarding `Cn1nc(-c2n[nH]c3ccc(OC4(C)CC4)cc23)cc(N2CCCC(C)(O)CC2)c1=O` (stereo not shown) [Compound 79, 4-(4-hydroxy-4-methyl-azepan-1-yl)-2-methyl-6-[5-(1-methylcyclopropoxy)-1H-indazol-3-yl]pyridazin-3-one], the IC50 in experiment [1] and in experiment [2] was no more than 50 nM throughout.
With `Cn1nc(-c2n[nH]c3ccc(OC4(C)CC4)cc23)cc(N2CCCCC(C)(O)C2)c1=O` (stereo not shown) [Compound 81, 4-(3-hydroxy-3-methyl-azepan-1-yl)-2-methyl-6-[5-(1-methylcyclopropoxy)-1H-indazol-3-yl]pyridazin-3-one], the IC50 in experiment [1] and in experiment [2] was no more than 50 nM in each case.
For `Cn1nc(-c2n[nH]c3ccc(OC4(C)CC4)cc23)cc(N2CCC(O)C(F)CC2)c1=O` (stereo not shown) [Compound 82, 4-(4-fluoro-5-hydroxy-azepan-1-yl)-2-methyl-6-[5-(1-methylcyclopropoxy)-1H-indazol-3-yl]pyridazin-3-one], the IC50 in experiment [1] and in experiment [2] was no more than 50 nM throughout.
`Cn1nc(-c2n[nH]c3ccc(OC4(C)CC4)cc23)cc(N2CCCN(CC(C)(C)O)CC2)c1=O` [Compound 84, 4-[4-(2-hydroxy-2-methyl-propyl)-1,4-diazepan-1-yl]-2-methyl-6-[5-(1-methylcyclopropoxy)-1H-indazol-3-yl]pyridazin-3-one]: the IC50 in experiment [1] and in experiment [2] was no more than 50 nM in each case.
As for `Cn1nc(-c2n[nH]c3ccc(OC4(C)CC4)cc23)cc(N2CCC(C(C)(C)O)C2)c1=O` (stereo not shown) [Compound 85, 4-[3-(1-hydroxy-1-methyl-ethyl)pyrrolidin-1-yl]-2-methyl-6-[5-(1-methylcyclopropoxy)-1H-indazol-3-yl]pyridazin-3-one], the IC50 in experiment [1] and in experiment [2] was no more than 50 nM in each case.
As for `Cn1nc(-c2n[nH]c3ccc(OC4(C)CC4)cc23)cc(N2CCOCC(CO)C2)c1=O` (stereo not shown) [Compound 88, 4-[6-(hydroxymethyl)-1,4-oxazepan-4-yl]-2-methyl-6-[5-(1-methylcyclopropoxy)-1H-indazol-3-yl]pyridazin-3-one], the 50% inhibitory concentration (IC50) in experiment [1] and in experiment [2] was no more than 50 nM throughout.
As for `Cn1nc(-c2n[nH]c3ccc(OC4(C)CC4)cc23)cc(N2CCOCC(C)(O)C2)c1=O` (stereo not shown) [Compound 90, 4-(6-hydroxy-6-methyl-1,4-oxazepan-4-yl)-2-methyl-6-[5-(1-methylcyclopropoxy)-1H-indazol-3-yl]pyridazin-3-one], the 50% inhibitory concentration (IC50) in experiment [1] and in experiment [2] was no more than 50 nM each time.
On to `Cn1nc(-c2n[nH]c3ccc(OC4(C)CC4)cc23)cc(N2CCOC(CO)CC2)c1=O` (stereo not shown) [Compound 92, 4-[7-(hydroxymethyl)-1,4-oxazepan-4-yl]-2-methyl-6-[5-(1-methylcyclopropoxy)-1H-indazol-3-yl]pyridazin-3-one], for which the IC50 in experiment [1] and in experiment [2] was no more than 50 nM throughout.
